This note sets out measurements from ChEMBL document CHEMBL1125246, “Configuration and preferential solid-state conformations of perindoprilat (S-9780). Comparison with the crystal structures of other ACE inhibitors and conclusions related to structure-activity relationships” (J Med Chem, 1991).

Structures are written as SMILES.

In the assay the target is T1, Angiotensin-converting enzyme (Oryctolagus cuniculus, UniProt P12822).
T1 sequence (P12822 whole entry): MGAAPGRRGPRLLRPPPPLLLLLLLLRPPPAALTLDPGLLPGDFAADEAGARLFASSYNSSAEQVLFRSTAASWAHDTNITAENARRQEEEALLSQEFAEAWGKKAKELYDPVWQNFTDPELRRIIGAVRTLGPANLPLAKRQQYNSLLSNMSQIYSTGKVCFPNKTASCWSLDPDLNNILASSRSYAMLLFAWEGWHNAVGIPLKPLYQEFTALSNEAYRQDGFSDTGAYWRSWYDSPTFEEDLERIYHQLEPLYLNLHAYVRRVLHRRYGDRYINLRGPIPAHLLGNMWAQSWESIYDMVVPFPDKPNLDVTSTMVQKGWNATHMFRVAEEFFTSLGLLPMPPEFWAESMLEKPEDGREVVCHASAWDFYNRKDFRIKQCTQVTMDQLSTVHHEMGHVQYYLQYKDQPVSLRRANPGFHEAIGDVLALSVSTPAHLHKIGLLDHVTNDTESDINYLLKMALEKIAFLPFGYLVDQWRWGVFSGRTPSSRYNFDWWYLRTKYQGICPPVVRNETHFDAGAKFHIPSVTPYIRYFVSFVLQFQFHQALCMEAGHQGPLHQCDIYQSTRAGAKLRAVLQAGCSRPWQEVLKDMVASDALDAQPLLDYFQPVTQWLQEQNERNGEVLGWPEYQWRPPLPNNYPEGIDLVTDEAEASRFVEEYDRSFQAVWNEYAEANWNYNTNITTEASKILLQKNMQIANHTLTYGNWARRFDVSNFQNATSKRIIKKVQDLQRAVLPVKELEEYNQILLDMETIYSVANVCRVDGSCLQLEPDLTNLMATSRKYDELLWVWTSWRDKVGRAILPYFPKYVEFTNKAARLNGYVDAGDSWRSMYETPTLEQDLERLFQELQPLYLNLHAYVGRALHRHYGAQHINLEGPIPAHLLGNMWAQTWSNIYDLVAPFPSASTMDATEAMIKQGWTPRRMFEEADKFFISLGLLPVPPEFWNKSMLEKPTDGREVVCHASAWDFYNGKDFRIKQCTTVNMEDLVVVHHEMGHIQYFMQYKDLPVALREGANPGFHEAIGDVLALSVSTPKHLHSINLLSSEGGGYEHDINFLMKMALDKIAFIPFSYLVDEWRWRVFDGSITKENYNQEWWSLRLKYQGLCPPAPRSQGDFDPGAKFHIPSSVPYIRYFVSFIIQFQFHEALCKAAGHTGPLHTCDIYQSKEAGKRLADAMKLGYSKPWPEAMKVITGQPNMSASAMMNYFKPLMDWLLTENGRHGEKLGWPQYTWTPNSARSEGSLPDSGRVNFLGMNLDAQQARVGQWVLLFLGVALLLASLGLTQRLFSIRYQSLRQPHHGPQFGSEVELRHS
The experiment in a line: In vitro activity against angiotensin I converting enzyme especially against Hip-His-Leu residues.
Turning to `CCCC(N[C@@H](C)C(=O)N1C(C(=O)O)CC2CCCCC21)C(=O)O` (stereo not given in full), half-maximal inhibition (IC50) required 1.5 nM.

Molecule `O=C(O)C1CCCN1C(=O)CCS` (stereo not given) displayed an IC50 of 200 nM.

The molecule `O=C(O)[C@H](CCc1ccccc1)NCC(=O)N1CCC[C@H]1C(=O)O` showed an IC50 of 230 nM.

As to `CCCC(N[C@H](C)C(=O)N1C(C(=O)O)CC2CCCCC21)C(=O)O` (stereo not given in full), inhibition was half-maximal at 1100 nM (IC50).

Consider `CCC[C@H](NCC(=O)N1C2CCCCC2C[C@H]1C(=O)O)C(=O)O` (stereo not given in full), for which half-maximal inhibition (IC50) required 1.9 nM.

As usually defined, the IC50 is the concentration that gives 50% inhibition. Higher therefore signals lower potency.
